Measured values as given in ChEMBL document CHEMBL3885861, “Open TG-GATES”.

Species on record: Rattus norvegicus
Assay: Open TG-GATES - Regimen: Daily Repeat
Type: toxicity, organism-based, Sprague-Dawley
Parameters: regimen Daily Repeat, gender Male, age 6 weeks
Conditions: in vivo, po, 300 mg/kg, route gavage, dose level High; for APTT / Bas / Eos / Fbg / Hb / Ht / Lym / MCH / MCHC / MCV / Mono / Neu / PT / Plat / RBC / Ret / WBC: tissue Blood; for KIDNEY_L / KIDNEY_R / KIDNEY_TOTAL: tissue Kidney; for LIVER: tissue Liver; for A/G / ALP / ALT / AST / BUN / CRE / Ca / Cl / DBIL / GLC / IP / K / LDH / Na / PL / RALB / TBIL / TC / TG / TP / gamma-GTP: tissue Plasma

SMILES: O=C(O)COc1nn(Cc2ccccc2)c2ccccc12 [BENDAZAC]
- TERMINAL_BW (72 h, time 3 day): 223.3 g
- APTT (72 h, time 3 day): 19 s
- Bas (72 h, time 3 day): 0%
- Eos (72 h, time 3 day): 0.8%
- Fbg (72 h, time 3 day): 218 mg/dL
- Hb (72 h, time 3 day): 14.2 g/dL
- Ht (72 h, time 3 day): 42%
- Lym (72 h, time 3 day): 75.2%
- MCH (72 h, time 3 day): 21.6 pg
- MCHC (72 h, time 3 day): 33.7%
- MCV (72 h, time 3 day): 64.2 fL
- Mono (72 h, time 3 day): 9.2%
- Neu (72 h, time 3 day): 14.4%
- PT (72 h, time 3 day): 12.3 s
- Plat (72 h, time 3 day): 133.3 x10_4/uL
- RBC (72 h, time 3 day): 655.2 x10_4/ul
- Ret (72 h, time 3 day): 6.2%
- WBC (72 h, time 3 day): 109.6 x10_2/uL
- KIDNEY_L (72 h, time 3 day): 1 g
- KIDNEY_R (72 h, time 3 day): 1.1 g
- KIDNEY_TOTAL (72 h, time 3 day): 2.1 g
- LIVER (72 h, time 3 day): 13.4 g
- A/G (72 h, time 3 day): 2.3
- ALP (72 h, time 3 day): 1088.6 IU/L
- ALT (72 h, time 3 day): 44.4 IU/L
- AST (72 h, time 3 day): 75.8 IU/L
- BUN (72 h, time 3 day): 17.4 mg/dL
- CRE (72 h, time 3 day): 0.6 mg/dL
- Ca (72 h, time 3 day): 10.8 mg/dL
- Cl (72 h, time 3 day): 103.6 meq/L
- DBIL (72 h, time 3 day): 0.076 mg/dL
- GLC (72 h, time 3 day): 192.6 mg/dL
- IP (72 h, time 3 day): 5.8 mg/dL
- K (72 h, time 3 day): 4.4 meq/L
- LDH (72 h, time 3 day): 141.8 IU/L
- Na (72 h, time 3 day): 140.4 meq/L
- PL (72 h, time 3 day): 131 mg/dL
- RALB (72 h, time 3 day): 3.8 g/dL
- TBIL (72 h, time 3 day): 0.8 mg/dL
- TC (72 h, time 3 day): 66.2 mg/dL
- TG (72 h, time 3 day): 68.8 mg/dL
- TP (72 h, time 3 day): 5.5 g/dL
- gamma-GTP (72 h, time 3 day): 1.2 IU/L
- TERMINAL_BW ([…], time 7 day): 261 g
- TERMINAL_BW ([…], time 14 day): 307.2 g
- TERMINAL_BW ([…], time 28 day): 410 g
- APTT ([…], time 7 day): 20.2 s
- Bas ([…], time 7 day): 0%
- Eos ([…], time 7 day): 0.8%
- Fbg ([…], time 7 day): 207.6 mg/dL
- Hb ([…], time 7 day): 13.8 g/dL
- Ht ([…], time 7 day): 40.6%
- Lym ([…], time 7 day): 83%
- MCH ([…], time 7 day): 21.5 pg
- MCHC ([…], time 7 day): 34%
- MCV ([…], time 7 day): 63.3 fL
- Mono ([…], time 7 day): 5.2%
- Neu ([…], time 7 day): 11.4%
- PT ([…], time 7 day): 12.6 s
- Plat ([…], time 7 day): 132.2 x10_4/uL
- RBC ([…], time 7 day): 641.6 x10_4/ul
- Ret ([…], time 7 day): 6.1%
- WBC ([…], time 7 day): 123 x10_2/uL
- APTT ([…], time 14 day): 18.9 s
- Bas ([…], time 14 day): 0%
- Eos ([…], time 14 day): 0.6%
- Fbg ([…], time 14 day): 213.6 mg/dL
- Hb ([…], time 14 day): 14.7 g/dL
- Ht ([…], time 14 day): 43%
- Lym ([…], time 14 day): 83%
- MCH ([…], time 14 day): 20.9 pg
- MCHC ([…], time 14 day): 34%
- MCV ([…], time 14 day): 61.3 fL
- Mono ([…], time 14 day): 5.6%
- Neu ([…], time 14 day): 10.8%
- PT ([…], time 14 day): 11.7 s
- Plat ([…], time 14 day): 128.4 x10_4/uL
- RBC ([…], time 14 day): 702.2 x10_4/ul
- Ret ([…], time 14 day): 3%
- WBC ([…], time 14 day): 117.7 x10_2/uL
- APTT ([…], time 28 day): 21 s
- Bas ([…], time 28 day): 0%
- Eos ([…], time 28 day): 1%
- Fbg ([…], time 28 day): 216.5 mg/dL
- Hb ([…], time 28 day): 14.8 g/dL
- Ht ([…], time 28 day): 43.9%
- Lym ([…], time 28 day): 83.2%
- MCH ([…], time 28 day): 19.5 pg
- MCHC ([…], time 28 day): 33.8%
- MCV ([…], time 28 day): 57.8 fL
- Mono ([…], time 28 day): 5.5%
- Neu ([…], time 28 day): 10.8%
- PT ([…], time 28 day): 13.5 s
- Plat ([…], time 28 day): 114.5 x10_4/uL
- RBC ([…], time 28 day): 760.5 x10_4/ul
- Ret ([…], time 28 day): 3.2%
- WBC ([…], time 28 day): 142.5 x10_2/uL
- KIDNEY_L ([…], time 7 day): 1.2 g
- KIDNEY_R ([…], time 7 day): 1.2 g
- KIDNEY_TOTAL ([…], time 7 day): 2.3 g
- KIDNEY_L ([…], time 14 day): 1.2 g
- KIDNEY_R ([…], time 14 day): 1.2 g
- KIDNEY_TOTAL ([…], time 14 day): 2.5 g
- KIDNEY_L ([…], time 28 day): 1.6 g
- KIDNEY_R ([…], time 28 day): 1.6 g
- KIDNEY_TOTAL ([…], time 28 day): 3.2 g
- LIVER ([…], time 7 day): 14.9 g
- LIVER ([…], time 14 day): 17 g
- LIVER ([…], time 28 day): 21.1 g
- A/G ([…], time 7 day): 2
- ALP ([…], time 7 day): 1331.4 IU/L
- ALT ([…], time 7 day): 37 IU/L
- AST ([…], time 7 day): 67.6 IU/L
- BUN ([…], time 7 day): 19.6 mg/dL
- CRE ([…], time 7 day): 0.5 mg/dL
- Ca ([…], time 7 day): 11.1 mg/dL
- Cl ([…], time 7 day): 105 meq/L
- DBIL ([…], time 7 day): 0.022 mg/dL
- GLC ([…], time 7 day): 196.8 mg/dL
- IP ([…], time 7 day): 5.8 mg/dL
- K ([…], time 7 day): 4.4 meq/L
- LDH ([…], time 7 day): 115.8 IU/L
- Na ([…], time 7 day): 141 meq/L
- PL ([…], time 7 day): 121 mg/dL
- RALB ([…], time 7 day): 3.8 g/dL
- TBIL ([…], time 7 day): 0.8 mg/dL
- TC ([…], time 7 day): 63.6 mg/dL
- TG ([…], time 7 day): 55.2 mg/dL
- TP ([…], time 7 day): 5.7 g/dL
- gamma-GTP ([…], time 7 day): 1 IU/L
- A/G ([…], time 14 day): 1.9
- ALP ([…], time 14 day): 903.6 IU/L
- ALT ([…], time 14 day): 36.6 IU/L
- AST ([…], time 14 day): 60.8 IU/L
- BUN ([…], time 14 day): 20.4 mg/dL
- CRE ([…], time 14 day): 0.5 mg/dL
- Ca ([…], time 14 day): 10.3 mg/dL
- Cl ([…], time 14 day): 105.2 meq/L
- DBIL ([…], time 14 day): 0.024 mg/dL
- GLC ([…], time 14 day): 185.6 mg/dL
- IP ([…], time 14 day): 5.3 mg/dL
- K ([…], time 14 day): 4.2 meq/L
- LDH ([…], time 14 day): 105.6 IU/L
- Na ([…], time 14 day): 140.8 meq/L
- PL ([…], time 14 day): 130.2 mg/dL
- RALB ([…], time 14 day): 3.9 g/dL
- TBIL ([…], time 14 day): 0.7 mg/dL
- TC ([…], time 14 day): 62.4 mg/dL
- TG ([…], time 14 day): 79.4 mg/dL
- TP ([…], time 14 day): 6.1 g/dL
- gamma-GTP ([…], time 14 day): 1.4 IU/L
- A/G ([…], time 28 day): 1.6
- ALP ([…], time 28 day): 768 IU/L
- ALT ([…], time 28 day): 34 IU/L
- AST ([…], time 28 day): 57 IU/L
- BUN ([…], time 28 day): 20.2 mg/dL
- CRE ([…], time 28 day): 0.6 mg/dL
- Ca ([…], time 28 day): 9.9 mg/dL
- Cl ([…], time 28 day): 103 meq/L
- DBIL ([…], time 28 day): 0.0525 mg/dL
- GLC ([…], time 28 day): 187 mg/dL
- IP ([…], time 28 day): 5 mg/dL
- K ([…], time 28 day): 4 meq/L
- LDH ([…], time 28 day): 72 IU/L
- Na ([…], time 28 day): 140 meq/L
- PL ([…], time 28 day): 117 mg/dL
- RALB ([…], time 28 day): 3.7 g/dL
- TBIL ([…], time 28 day): 0.9 mg/dL
- TC ([…], time 28 day): 54.8 mg/dL
- TG ([…], time 28 day): 57.8 mg/dL
- TP ([…], time 28 day): 6.2 g/dL
- gamma-GTP ([…], time 28 day): 1.5 IU/L
